The values below come from ChEMBL document CHEMBL3751820, “Synthesis and evaluation of bis-thiazole derivatives as new anticancer agents” (Eur J Med Chem, 2016).

In brackets after ≈: the same amount, converted by molar mass. Activity calls are given as the source filed them. The calls are words filed in the database; no cut-off is given here.

In general, IC50 refers to the point on the concentration scale where inhibition reaches its midpoint. Low values mean greater potency, high ones weaker potency. The inhibition is the share of the control response that was lost under treatment.

The test system of test [1] is A549. As to the kind of experiment: Cytotoxicity against human A549 cells after 24 hrs by MTT assay. The settings on record: A549, 24 h. In kind it is functional, cell-based. For orientation: Formazan colour is commonly taken as a measure of viable cells.
In test [2] the test system is C6. The experiment in a line: Cytotoxicity against rat C6 cells after 24 hrs by MTT assay. Type of test: functional, cell-based. The settings on record: C6, 24 h.
Test [3] is described as follows: Cytotoxicity against rat 5RP7 cells after 24 hrs by MTT assay. Type of test: functional, cell-based. The conditions noted are these: 5RP7, 24 h.
Test [4] can be described thus: Cytotoxicity against mouse NIH/3T3 cells after 24 hrs by MTT assay. Type of test: cell-based. The settings on record: NIH3T3, 24 h.
The next test addresses Acetylcholinesterase (Electrophorus electricus, UniProt O42275). As to the kind of experiment: Inhibition of electric eel AChE using acetylthiocholine iodide as substrate at by Ellman spectrophotometric method. (In general: Ellman's reagent forms a yellow product with free thiols.)
In test [5] the target is T1, Cholinesterase (Homo sapiens, UniProt P06276). The experiment in a line: Inhibition of BuChE (unknown origin) using butyrylthiocholine iodide as substrate at 80 ug/ml by Ellman spectrophotometric method.
Test [6] deals with T1, Cholinesterase. As to the kind of experiment: Inhibition of BuChE (unknown origin) using butyrylthiocholine iodide as substrate by Ellman spectrophotometric method.
In test [7] the test system is A549. As to the kind of experiment: Antiproliferative activity against human A549 cells assessed as inhibition of DNA synthesis after 24 hrs by BrdU incorporation based ELISA. In kind it is functional, cell-based.
For test [8], the system named is A549. As to the kind of experiment: Selectivity index, ratio of IC50 for mouse NIH/3T3 cells to IC50 for human A549 cells. In kind it is functional.
Test [9] concerns C6. As to the kind of experiment: Selectivity index, ratio of IC50 for mouse NIH/3T3 cells to IC50 for rat C6 cells. In kind it is functional.
Test [10] relates to C6. As to the kind of experiment: Antiproliferative activity against rat C6 cells assessed as inhibition of DNA synthesis after 24 hrs by BrdU incorporation based ELISA. Type of test: functional, cell-based. (In general: Incorporation of labelled thymidine or its analogues reports DNA synthesis.)

T1 sequence (P06276 whole entry): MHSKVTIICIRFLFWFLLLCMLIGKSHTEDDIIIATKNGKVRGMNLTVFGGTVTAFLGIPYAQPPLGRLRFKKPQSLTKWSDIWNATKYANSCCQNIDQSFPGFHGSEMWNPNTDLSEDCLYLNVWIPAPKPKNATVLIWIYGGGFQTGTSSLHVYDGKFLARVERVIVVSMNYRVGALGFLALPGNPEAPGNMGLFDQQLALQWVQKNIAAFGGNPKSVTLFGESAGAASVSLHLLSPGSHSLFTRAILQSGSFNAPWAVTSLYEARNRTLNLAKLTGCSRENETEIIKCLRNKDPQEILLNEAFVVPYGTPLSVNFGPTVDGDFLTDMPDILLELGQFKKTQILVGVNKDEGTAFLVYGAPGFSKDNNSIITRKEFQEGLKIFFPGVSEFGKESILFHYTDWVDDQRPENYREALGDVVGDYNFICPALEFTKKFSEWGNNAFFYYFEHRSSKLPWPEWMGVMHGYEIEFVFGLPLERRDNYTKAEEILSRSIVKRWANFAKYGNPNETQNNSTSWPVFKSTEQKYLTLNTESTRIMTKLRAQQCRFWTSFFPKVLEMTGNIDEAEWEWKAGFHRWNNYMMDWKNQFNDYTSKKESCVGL
Sequence of Acetylcholinesterase (O42275 whole entry): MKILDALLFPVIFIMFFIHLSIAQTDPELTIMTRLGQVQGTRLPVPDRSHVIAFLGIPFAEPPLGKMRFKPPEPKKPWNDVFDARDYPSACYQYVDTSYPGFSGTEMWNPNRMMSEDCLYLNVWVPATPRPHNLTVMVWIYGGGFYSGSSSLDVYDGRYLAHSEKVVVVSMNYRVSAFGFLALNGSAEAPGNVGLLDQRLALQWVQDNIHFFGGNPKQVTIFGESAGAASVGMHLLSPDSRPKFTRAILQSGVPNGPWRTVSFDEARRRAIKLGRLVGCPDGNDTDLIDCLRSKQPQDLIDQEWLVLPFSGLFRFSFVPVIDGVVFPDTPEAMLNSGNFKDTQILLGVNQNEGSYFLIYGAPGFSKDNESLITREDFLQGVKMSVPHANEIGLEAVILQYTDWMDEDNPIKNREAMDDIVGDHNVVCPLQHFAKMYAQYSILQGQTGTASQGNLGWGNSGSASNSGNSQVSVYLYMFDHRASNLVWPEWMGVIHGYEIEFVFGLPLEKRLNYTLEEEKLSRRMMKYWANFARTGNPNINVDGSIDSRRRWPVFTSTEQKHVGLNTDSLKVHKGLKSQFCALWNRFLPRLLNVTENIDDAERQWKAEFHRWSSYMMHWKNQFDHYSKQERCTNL

On to `COc1cc(-c2ccc(Nc3nc(-c4ccccc4)cs3)c(OC)c2)ccc1Nc1nc(-c2ccccc2)cs1`, for which the IC50 was 103 µg/mL (≈ 184 µM) in the test with A549 [1]; 49.3 µg/mL (≈ 87.6 µM) with C6 [2]; 28 µg/mL (≈ 49.8 µM) in test [3]; 112 µg/mL (≈ 198 µM) in [4]; 16.6 µM on Acetylcholinesterase. The inhibition result at Cholinesterase [5] is “inactive”.
As for `O=C1c2c(O)ccc(O)c2C(=O)c2c(NCCNCCO)ccc(NCCNCCO)c21` [MITOXANTRONE], the IC50 in the test with A549 [1] came out at 15.7 µg/mL (≈ 35.3 µM); in [3] it was 0.73 µg/mL (≈ 1.64 µM).
For `COc1cc(-c2ccc(Nc3nc(-c4ccc(Cl)cc4)cs3)c(OC)c2)ccc1Nc1nc(-c2ccc(Cl)cc2)cs1`, the IC50 in the test with A549 [1] is 105 µg/mL (≈ 166 µM); with C6 [2], 147 µg/mL (≈ 232 µM); in test [3], 207 µg/mL (≈ 327 µM); in [4] it was 112 µg/mL (≈ 177 µM); on Acetylcholinesterase, 42.7 µM; against Cholinesterase [6], over 127 µM. Also, on Cholinesterase [5], the inhibition is 39.1%.
Consider `COc1cc(-c2ccc(Nc3nc(-c4ccc(Br)cc4)cs3)c(OC)c2)ccc1Nc1nc(-c2ccc(Br)cc2)cs1`, for which the result in the test on A549 [7] was Active. The IC50 with A549 [1] was 37.3 µg/mL (≈ 51.8 µM); with C6 [2], 11.3 µg/mL (≈ 15.7 µM); in [3] it was 68.3 µg/mL (≈ 94.8 µM); in [4], 132 µg/mL (≈ 183 µM); against Acetylcholinesterase, 15.9 µM. The “Ratio IC50” value with A549 [8] came out at 3.53; with C6 [9] it was 11.65. For the same compound, the result in the test with C6 [10] was inactive. In addition, the inhibition entry at Cholinesterase [5] is “inactive”.
For the compound `COc1cc(-c2ccc(Nc3nc(-c4ccc([N+](=O)[O-])cc4)cs3)c(OC)c2)ccc1Nc1nc(-c2ccc([N+](=O)[O-])cc2)cs1`, the result with A549 [7] was Active. For the same compound, the half-inhibitory concentration (IC50) in the test on A549 [1] was 82.3 µg/mL (≈ 126 µM); in the test on C6 [2], 33.3 µg/mL (≈ 51 µM); in test [3] it was 5.83 µg/mL (≈ 8.93 µM); in test [4], 147 µg/mL (≈ 225 µM); against Acetylcholinesterase, 15.9 µM; on Cholinesterase [6], over 123 µM. Also, the result in the test on C6 [10] was inactive. In addition, at Cholinesterase [5], the inhibition was 27.9%.
Turning to `COc1cc(-c2ccc(NC(N)=S)c(OC)c2)ccc1NC(N)=S`, the IC50 is 178 µg/mL (≈ 492 µM) with A549 [1]; 165 µg/mL (≈ 455 µM) with C6 [2]; 25.3 µg/mL (≈ 69.9 µM) in test [3]; 195 µg/mL (≈ 538 µM) in test [4]; 57.7 µM on Acetylcholinesterase; over 221 µM against Cholinesterase [6]. The compound further had an inhibition at Cholinesterase [5] of 26.7%.
`COc1cc(-c2ccc(Nc3nc(-c4cc(Cl)ccc4Cl)cs3)c(OC)c2)ccc1Nc1nc(-c2cc(Cl)ccc2Cl)cs1`: the IC50 is 102 µg/mL (≈ 145 µM) with A549 [1]; 38.3 µg/mL (≈ 54.7 µM) in the test with C6 [2]; 54.3 µg/mL (≈ 77.6 µM) in [3]; 162 µg/mL (≈ 231 µM) in test [4]; 97.1 µM at Acetylcholinesterase; over 114 µM at Cholinesterase [6]. The same compound had an inhibition on Cholinesterase [5] of 36.2%.
In the case of `COc1cc(-c2ccc(Nc3nc(-c4ccc(Cl)c(Cl)c4)cs3)c(OC)c2)ccc1Nc1nc(-c2ccc(Cl)c(Cl)c2)cs1`, the IC50 is 147 µg/mL (≈ 209 µM) in the test on A549 [1]; 90 µg/mL (≈ 128 µM) in the test with C6 [2]; 207 µg/mL (≈ 295 µM) in test [3]; over 200 µg/mL in test [4]; 16.3 µM at Acetylcholinesterase; 110 µM on Cholinesterase [6]. On Cholinesterase [5], this compound showed an inhibition of 53.5%.
For `COc1ccc(OC)c(-c2csc(Nc3ccc(-c4ccc(Nc5nc(-c6cc(OC)ccc6OC)cs5)c(OC)c4)cc3OC)n2)c1`, the half-maximal inhibitory concentration (IC50) in the test on A549 [1] is 125 µg/mL (≈ 183 µM); in the test with C6 [2] it was 103 µg/mL (≈ 151 µM); in [3], 12.3 µg/mL (≈ 18.1 µM); in test [4], 170 µg/mL (≈ 249 µM); at Acetylcholinesterase, 55.7 µM; at Cholinesterase [6], 58 µM. At Cholinesterase [5], this compound registered an inhibition of 56.9%.
`COc1cc(-c2ccc(Nc3nc(-c4ccc(Cl)cc4Cl)cs3)c(OC)c2)ccc1Nc1nc(-c2ccc(Cl)cc2Cl)cs1`: the IC50 in the test with A549 [1] was 133 µg/mL (≈ 190 µM); in the test on C6 [2], 80 µg/mL (≈ 114 µM); in test [3] it was over 500 µg/mL; in test [4] it was over 200 µg/mL; against Acetylcholinesterase it was 8.37 µM; against Cholinesterase [6], 47.6 µM. The compound further had an inhibition at Cholinesterase [5] of 84.4%.
On to `COc1cc(-c2ccc(Nc3nc(-c4ccc(C)cc4)cs3)c(OC)c2)ccc1Nc1nc(-c2ccc(C)cc2)cs1`, for which the outcome in the test with A549 [7] was Active. Moreover, the IC50 is 98.3 µg/mL (≈ 166 µM) with A549 [1]; 21 µg/mL (≈ 35.5 µM) in the test with C6 [2]; over 500 µg/mL in test [3]; 153 µg/mL (≈ 260 µM) in [4]; 45.8 µM against Acetylcholinesterase; over 135 µM against Cholinesterase [6]. In the test on C6 [10], the result was inactive. Also, the inhibition against Cholinesterase [5] worked out at 40.9%.
As to `COc1ccc(-c2csc(Nc3ccc(-c4ccc(Nc5nc(-c6ccc(OC)cc6)cs5)c(OC)c4)cc3OC)n2)cc1`, the result in the test with A549 [7] was Active. Moreover, the IC50 in the test with A549 [1] is 58.3 µg/mL (≈ 93.6 µM); in the test with C6 [2], 28.7 µg/mL (≈ 46.1 µM); in test [3] it was 13.3 µg/mL (≈ 21.4 µM); in [4], 98.3 µg/mL (≈ 158 µM); against Acetylcholinesterase it was 12.4 µM; at Cholinesterase [6], 107 µM. Also, the result in the test with C6 [10] was inactive. The compound further showed an inhibition against Cholinesterase [5] of 74.5%.
